In the CheMixHub viscosity set:

Test: xn = mol fraction of the nth substance listed

COC(=O)c1ccccc1 + CCCCCC
101 kPa
Details	viscosity [mPa·s]
298.15 K, x2 = 0.0743	1.549
298.15 K, x2 = 0.1072	1.437
298.15 K, x2 = 0.1557	1.292
298.15 K, x2 = 0.2038	1.165
298.15 K, x2 = 0.2487	1.059
298.15 K, x2 = 0.306	0.942
298.15 K, x2 = 0.4327	0.739
298.15 K, x2 = 0.5799	0.573
298.15 K, x2 = 0.6269	0.531
298.15 K, x2 = 0.7731	0.43
298.15 K, x2 = 0.8687	0.379
298.15 K, x2 = 0.9288	0.356
308.15 K, x2 = 0.0711	1.287
308.15 K, x2 = 0.1099	1.188
308.15 K, x2 = 0.156	1.08
308.15 K, x2 = 0.1971	0.989
308.15 K, x2 = 0.2501	0.894
308.15 K, x2 = 0.2967	0.816
308.15 K, x2 = 0.3441	0.748
308.15 K, x2 = 0.3888	0.69
308.15 K, x2 = 0.4383	0.633
308.15 K, x2 = 0.4943	0.577
308.15 K, x2 = 0.5292	0.546
308.15 K, x2 = 0.5797	0.504
308.15 K, x2 = 0.6228	0.475
308.15 K, x2 = 0.6692	0.446
308.15 K, x2 = 0.7253	0.412
308.15 K, x2 = 0.767	0.392
308.15 K, x2 = 0.8162	0.37
308.15 K, x2 = 0.8731	0.347
308.15 K, x2 = 0.9205	0.329
318.15 K, x2 = 0.08	1.087
318.15 K, x2 = 0.0873	1.072
318.15 K, x2 = 0.1249	1
318.15 K, x2 = 0.1776	0.906
318.15 K, x2 = 0.2189	0.839
318.15 K, x2 = 0.2731	0.757
318.15 K, x2 = 0.3197	0.696
318.15 K, x2 = 0.3711	0.634
318.15 K, x2 = 0.4155	0.586
318.15 K, x2 = 0.4667	0.537
318.15 K, x2 = 0.5132	0.499
318.15 K, x2 = 0.5535	0.471
318.15 K, x2 = 0.6116	0.436
318.15 K, x2 = 0.6634	0.41
318.15 K, x2 = 0.7082	0.388
318.15 K, x2 = 0.7636	0.365
318.15 K, x2 = 0.8087	0.35
318.15 K, x2 = 0.8631	0.333
318.15 K, x2 = 0.9098	0.317

CCOS(=O)(=O)[O-].CC[N+](CC)=C(N(C)C)N(C)C + CO
viscosity [mPa·s], 100 kPa
Details	x1 = 0.1	x1 = 0.1991	x1 = 0.298	x1 = 0.3949	x1 = 0.4982	x1 = 0.5999	x1 = 0.6953	x1 = 0.7999	x1 = 0.9002
293.15 K	1.785	4.501	9.381	18.38	32.98	53.59	80.2	115.6	153.4
298.15 K	1.634	4.072	8.2	15.58	27.24	42.8	62.36	87.46	112.3
303.15 K	1.504	3.661	7.163	13.38	22.82	34.85	49.55	67.85	86.71
308.15 K	1.389	3.307	6.417	11.63	19.37	28.79	40.16	53.89	67.59
313.15 K	1.287	3	5.724	10.18	16.65	24.17	33.08	43.49	53.73
318.15 K	1.195	2.734	4.994	8.991	14.45	20.55	27.69	35.64	43.24
323.15 K	1.113	2.5	4.58	7.999	12.64	17.68	23.46	29.74	35.49

CCOC(=O)CCl + c1ccccc1
viscosity [mPa·s], 101.3 kPa
Details	x1 = 0.0985	x1 = 0.1983	x1 = 0.2974	x1 = 0.3925	x1 = 0.5049	x1 = 0.6023	x1 = 0.696	x1 = 0.7994	x1 = 0.8998
298.15 K	0.634	0.659	0.694	0.734	0.781	0.834	0.886	0.949	1.019
303.15 K	0.592	0.616	0.649	0.687	0.731	0.779	0.825	0.883	0.948
308.15 K	0.549	0.574	0.605	0.64	0.681	0.723	0.765	0.82	0.878

CCOCCOCCOCC + CC1COC(=O)O1
viscosity [mPa·s], 101.33 kPa
Details	298.15 K	308.15 K	318.15 K
x1 = 0.013	2.474	2.024	1.703
x1 = 0.0542	2.418	1.982	1.658
x1 = 0.1089	2.353	1.923	1.605
x1 = 0.1594	2.288	1.875	1.555
x1 = 0.2136	2.225	1.827	1.506
x1 = 0.257	2.179	1.782	1.466
x1 = 0.3304	2.08	1.702	1.39
x1 = 0.4267	1.94	1.589	1.297
x1 = 0.497	1.833	1.504	1.227
x1 = 0.5874	1.717	1.404	1.152
x1 = 0.6907	1.589	1.306	1.076
x1 = 0.7876	1.474	1.219	1.01
x1 = 0.8704	1.377	1.148	0.957
x1 = 0.9264	1.316	1.101	0.922
x1 = 0.9628	1.289	1.071	0.901
